From patent publication US20180289764A1, “TRADITIONAL CHINESE MEDICINE COMPOSITION FOR TREATING PSORIASIS” (Guangdong Provincial Hospital of Chinese Medicine, priority 2015, published 2018)

Assays:
psoriasis = settings: systemic treatment of psoriasis, background table; cited from earlier work
[1] = system: mouse tail scaled epidermis; experiment: Effects on the mouse tail scaled epidermis; format: in vivo, KM mice
Description: 60 KM mice weighing 18-25 g with half males and half females were selected in this study, the mice were qualified in an adaptive breeding observation. The mice were layered with Excel according to weights, 6 mice every layer, and the mice in each layer were randomly assigned to each group, 10 mice every group, and the mice were divided into 6 groups in total, that is normal control group, the group of the present invention, the group of patent 200910091066.5, the group of the patent of 201210183904.3, the group of methotrexate tablet and the group of yujin yinxie tablet. The mice in each group were given by intragastric administration at a volume of 20 mL·kg-1·d-1 in the morning, once every day for 14 days. The normal control group was given equal volume of pure water. The mice were sacrificed one hour after the last administration, and a long strip of the dorsal skin of the root of the mouse tail (about 1.0 cm×0.2 em) was took off and fixed with 10% formaldehyde solution, embedded in paraffin, and stained with HE. The tail scales of each mouse were observed under an optical microscope. Those where the granulosa layers arranged in rows are in the epidermis of scales between the two follicular orifice, are known as the scales with granulosa layer. […]

[2] = system: propranolol-induced guinea pig psoriasis model; experiment: Propranolol-induced guinea pig psoriasis model; format: in vivo, Hartley guinea pigs
Description: The preparation of 5% propranolol hydrochloride emulsion: 5 g propranolol hydrochloride was dissolved with 50% ethanol, 5 mL 1,2-propanediol was added as a composite accelerator, and 5 g PVPK30 was added as a film-forming material. 50% ethanol was added to 100 mL, and preparing into 5% propranolol hydrochloride emulsion until used
80 Hartley guinea pigs weighing 200-250 g with half males and half females were selected in this study, the Hartley guinea pigs were qualified in an adaptive breeding observation. 10 guinea pigs (half male and half female) were used as a normal control group based on a random allocation, and no drugs were administrated to them; the other 70 guinea pigs (half males and half females) were treated with 5% propranolol hydrochloride emulsion (about 200 μL) evenly in the skins behind both of ears, 2 times a day, continuing treating 4 weeks, for modeling. 4 weeks later, 10 guinea pigs were sacrificed to examine whether the model was successful (with the thickness of the ear skin as an index). The remaining 60 guinea pigs were then layered with Excel according to weights, 6 guinea pigs every layer, and the guinea pigs in each layer were randomly assigned to each group, 10 guinea pigs every group, and the guinea pigs were divided into 6 groups in total, that is the model control group, the group of the present invention, the group of patent 201210183904.3, the group of the patent of 200910091066.5, the group of methotrexate tablet and the group of yujin yinxie tablet. The guinea pigs in each group were given by intragastric administration at a volume of 20 mL·kg-1·d-1 in the morning, once every day for 10 days. The normal control group and the model control group were given equal volume of pure water. The guinea pigs were sacrificed one hour after the last administration, and the skin behind both of ears was took off and fixed with 10% formaldehyde solution, embedded in paraffin, and stained with HE, observed under an optical microscope. 10 high-power fields were counted, the thickness of the epidermis was measured with a micrometer, and averaged; the auricular pathology of guinea pigs was used to perform a histological examination, observe vasodilation situations, which were denoted as 0, 0.5, 1 and 2 points according to normal, light, medium and heavy degrees.

SMILES	Efficacy rate (the efficient) (psoriasis)	Formation of the epidermis granulosa layer of the mouse tail scale compared with normal control group ([1]; intragastric 14 days, P<0.05 or P<0.01)	The number of scales in the granulosa layer ([1]; per 100 scales, expressed as a percentage, intragastric once daily for 14 days, x ± s, n = 10)	Blood vessel dilatation ([2]; 0, 0.5, 1, 2 points for normal, light, medium, heavy, intragastric 10 days, x ± s, n = 10) [score]	Effect on epidermis thickness of guinea pig ears and hemangiectasis compared with model control ([2]; P<0.01)	Histopathological examination ([2]; guinea pig ear skin, HE stain)	Epidermal thickness ([2]; guinea pig ear skin, intragastric once daily for 10 days, x ± s, n = 10) [μm]
CC1=C(/C=C/C(C)=C/C=C/C(C)=C/CO)C(C)(C)CCC1 [Vitamin A, vitamin A (retinol)]	25%	–	–	–	–	–	–
CN(Cc1cnc2nc(N)nc(N)c2n1)c1ccc(C(=O)N[C@@H](CCC(=O)O)C(=O)O)cc1 [methotrexate tablet, methotrexate]	20-40%	significantly promote the formation of the epidermis granulosa layer of the mouse tail scale	43.65 ± 11.18	0.42 ± 0.12	significantly reduce the thickness of the epidermis of guinea pig ears and reduce hemangiectasis	hyperkeratosis and parakeratosis was obviously alleviated	96.61 ± 4.78
